Results from patent publication US20220023271A1, “COMPOSITION FOR PREVENTING OR TREATING CELLULAR SENESCENCE-RELATED DISEASES COMPRISING ZOTAROLIMUS AS ACTIVE INGREDIENT” (RESEARCH COOPERATION FOUNDATION OF YEUNGNAM UNIVERSITY, priority 2018, published 2022).

Legend:
Assay type in all cases: cell-based
[1] = tested on: human dermal fibroblasts (HDF); assay: SAβG activity staining in senescent human fibroblasts; conditions: 4 days; for SAβG activity: 100 nM
Method: Each cell was treated in a serum-free culture solution containing 0.5 μM doxorubicin for 4 hours. After washing the cells with a serum-free culture solution, the cells were cultured for 4 days in a culture solution containing 10% FBS, and then cellular aging was confirmed by staining with senescence-associated beta galactosidase (SAβG). After dispensing 2×10^5 cells in a 100 mm culture dish, they were cultured in a 37° C., 5% CO2 incubator. When the cells grew to 80-90% in the culture dish, the cells were removed by treatment with trypsin-EDTA, and the number of cells was measured, and the cell population doubling time (PDT) was measured. By successively subculturing the cells in the same process as described above, replication aging was induced. PDT of young fibroblasts was 36 hours, PDT of replicative senescent fibroblasts was 12 days, PDT of young vascular endothelial cells was 24 hours, and PDT of replicative senescent vascular endothelial cells was 7 days. After each sample was dissolved in DMSO, young cells, replicative senescent cells, and premature senescent cells treated with doxorubicin were treated with 100 nM zotarolimus, 100 nM rapamycin, 100 nM ABT263, respectively. After incubation for 4 days in a 37° C., 5% CO2 incubator, the degree of cell growth was confirmed by CCK-8 analysis, the degree of cellular aging was confirmed by senescence-related beta-galactosidase (SAβG) staining, The cells were washed with 1× phosphate buffer solution, and fixed with a phosphate buffer solution containing 3.7% (v/v) paraformaldehyde. After adding 1 mg/ml 5-bromo-4-chloro-3-indolyl-6-D-galactoside, 40 mM citric acid-sodium phosphate (pH 6.0), 5 mM potassium ferricyanide, 5 mM potassium ferrocyanide, 150 mM NaCl, and 2 mM MgCl2 solution, it was reacted at 37° C. for 18 hours. It was stained with eosin as a control stain. Cells stained blue in the cytoplasm were identified using an optical microscope. Human fibroblasts were treated with doxorubicin to induce early cellular senescence. […]

[2] = tested on: human umbilical vascular endothelial cells (HUVEC); assay: CCK-8 cell growth analysis in vascular endothelial cells
Method: Each cell was treated in a serum-free culture solution containing 0.5 μM doxorubicin for 4 hours. After washing the cells with a serum-free culture solution, the cells were cultured for 4 days in a culture solution containing 10% FBS, and then cellular aging was confirmed by staining with senescence-associated beta galactosidase (SAβG). After dispensing 2×10^5 cells in a 100 mm culture dish, they were cultured in a 37° C., 5% CO2 incubator. When the cells grew to 80-90% in the culture dish, the cells were removed by treatment with trypsin-EDTA, and the number of cells was measured, and the cell population doubling time (PDT) was measured. After each sample was dissolved in DMSO, young cells, replicative senescent cells, and premature senescent cells treated with doxorubicin were treated with 100 nM zotarolimus, 100 nM rapamycin, 100 nM ABT263, respectively. […] Then, the absorbance was measured at 450 nm using a microplate reader. The degree of cell growth was expressed as a relative value for the absorbance of the control group treated with only DMSO as 100%. […]

[3] = tested on: human retinal pigmented epithelial cells (ARPE-19); assay: CCK-8 cell growth analysis in retinal pigmented epithelial cells; conditions: young vs senescent retinal pigmented epithelial cells; concentration-dependent
Method: Each cell was treated in a serum-free culture solution containing 0.5 μM doxorubicin for 4 hours. After washing the cells with a serum-free culture solution, the cells were cultured for 4 days in a culture solution containing 10% FBS, and then cellular aging was confirmed by staining with senescence-associated beta galactosidase (SAβG). After each sample was dissolved in DMSO, young cells, replicative senescent cells, and premature senescent cells treated with doxorubicin were treated with 100 nM zotarolimus, 100 nM rapamycin, 100 nM ABT263, respectively. After incubation for 4 days in a 37° C., 5% CO2 incubator, the degree of cell growth was confirmed by CCK-8 analysis, the degree of cellular aging was confirmed by senescence-related beta-galactosidase (SAβG) staining, Young cells (1×10^3 cells/well) or senescent cells (2×10^3 cells/well) were dispensed into a 96-well plate, and cultured overnight in a 37° C., 5% CO2 incubator. Zotarolimus, ABT263 and rapamycin were treated at each concentration, and then incubated for 4 days in a 37° C., 5% CO2 incubator. […] Then, the absorbance was measured at 450 nm using a microplate reader. The degree of cell growth was expressed as a relative value for the absorbance of the control group treated with only DMSO as 100%. […]

CO[C@H]1C[C@@H]2CC[C@@H](C)[C@@](O)(O2)C(=O)C(=O)N2CCCC[C@H]2C(=O)O[C@H]([C@H](C)C[C@@H]2CC[C@H](n3cnnn3)[C@H](OC)C2)CC(=O)[C@H](C)/C=C(\C)[C@@H](O)[C@@H](OC)C(=O)[C@H](C)C[C@H](C)/C=C/C=C/C=C/1C [zotarolimus]
SAβG activity ([1]; premature senescent fibroblasts by doxorubicin, vs DMSO-treated group): decreased compared to the DMSO-treated group
SAβG activity compared with rapamycin ([1]; replicative senescent fibroblasts, 100 nM each, p<0.05): significantly reduced than that of rapamycin
SAβG activity ([1]; replicative senescent fibroblasts, vs DMSO, p<0.01): significantly reduced
cell growth (CCK-8) ([2]; premature senescent HUVEC by doxorubicin, 100 nM, 4 days, vs DMSO, p<0.01): significantly reduced
cell growth with increasing concentration of zotarolimus ([2]; young vs replicative senescent HUVEC): decreased compared to the young cells in a concentration-dependent manner
cell growth with increasing concentrations of zotarolimus [3]: significantly decreased in senescent cells compared to young cells
